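Test compounds were applied to cells in 96-well plates for 48 hours at 5 doses. The concentration for 50% growth inhibition is given as GI50.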 Activity calls are given as the source filed them. Rule as the data show it: active = GI50 up to about 1.1 µM and inactive = higher. Square brackets hold non-standard residues; d marks the D form. Peptide text beside a SMILES is read from it.
How the values were obtained:
Test in all cases: NCI anticancer screen, dose series, 48 h
UO-31 = test system: UO-31
NCI-H522 = test system: NCI-H522
OVCAR-5 = test system: OVCAR-5
MDA-MB-231 = test system: MDA-MB-231
SK-MEL-2 = test system: SK-MEL-2
SK-MEL-5 = test system: SK-MEL-5
HOP-62 = test system: HOP-62
HOP-92 = test system: HOP-92
KM12 = test system: KM12
ACHN = test system: ACHN
NCI/ADR-RES = test system: NCI/ADR-RES
T47D = test system: T47D
SF-539 = test system: SF-539
RPMI-8226 = test system: RPMI-8226
SF-268 = test system: SF-268
MOLT-4 = test system: MOLT-4

| Compound | GI50 (UO-31) | GI50 (NCI-H522) | GI50 (OVCAR-5) | GI50 (MDA-MB-231) | GI50 (SK-MEL-2) | GI50 (SK-MEL-5) | GI50 (HOP-62) | GI50 (HOP-92) | GI50 (KM12) | GI50 (ACHN) | GI50 (NCI/ADR-RES) | GI50 (T47D) | GI50 (SF-539) | GI50 (RPMI-8226) | GI50 (SF-268) | GI50 (MOLT-4) |
| --- | --- | --- | --- | --- | --- | --- | --- | --- | --- | --- | --- | --- | --- | --- | --- | --- |
| c1ccc(-c2ccc(/N=N/N3CCCC3)cc2)cc1 | > 100 µM (inactive) | > 100 µM (inactive) | > 100 µM (inactive) | > 100 µM (inactive) | > 100 µM (inactive) | > 100 µM (inactive) | > 100 µM (inactive) | > 100 µM (inactive) | > 100 µM (inactive) | > 100 µM (inactive) | > 100 µM (inactive) | > 100 µM (inactive) | > 100 µM (inactive) | 22.8 µM (inactive) | > 100 µM (inactive) | > 100 µM (inactive) |
| O=[N+]([O-])c1ccc2sc(/C=N/c3ccccn3)cc2c1 | > 100 µM (inactive) | > 100 µM (inactive) | > 100 µM (inactive) | 84.1 µM (inactive) | > 100 µM (inactive) | > 100 µM (inactive) | > 100 µM (inactive) | 69.8 µM (inactive) | 64.6 µM (inactive) | 98.6 µM (inactive) | 97.7 µM (inactive) | 26 µM (inactive) | > 100 µM (inactive) | 22.6 µM (inactive) | 28.5 µM (inactive) | 19.7 µM (inactive) |
| Cc1cccc(/N=N/c2ccc(O)c(CN(C)C)c2)c1 | 7.35 µM (inactive) | 10.5 µM (inactive) | 33.8 µM (inactive) | 5.6 µM (inactive) | 20.7 µM (inactive) | 14 µM (inactive) | 11.1 µM (inactive) | 6.17 µM (inactive) | 13.4 µM (inactive) | 8 µM (inactive) | 16.9 µM (inactive) | 11.5 µM (inactive) | 18.2 µM (inactive) | 32 µM (inactive) | 26.2 µM (inactive) | 20 µM (inactive) |
| CNN1C(=O)c2c(N)c(C#N)c(-c3ccccc3)c(-c3ccccc3)c2C1=O | 48.6 µM (inactive) | 84.1 µM (inactive) | 30.3 µM (inactive) | > 100 µM (inactive) | > 100 µM (inactive) | 62.4 µM (inactive) |  | > 100 µM (inactive) | 86.9 µM (inactive) | > 100 µM (inactive) | 82.2 µM (inactive) | 17.9 µM (inactive) | 57.7 µM (inactive) | 24.7 µM (inactive) | > 100 µM (inactive) | 39.5 µM (inactive) |
| Nc1nc(N)c(Cn2ccnc2)c(O)n1 | > 100 µM (inactive) | > 100 µM (inactive) | > 100 µM (inactive) | > 100 µM (inactive) | > 100 µM (inactive) | > 100 µM (inactive) | > 100 µM (inactive) | > 100 µM (inactive) | > 100 µM (inactive) | > 100 µM (inactive) | > 100 µM (inactive) | > 100 µM (inactive) | > 100 µM (inactive) | > 100 µM (inactive) | > 100 µM (inactive) |  |
| Cc1nc2c(=O)n(-c3ccccc3)c(=O)n(-c3ccccc3)c2o1 | > 100 µM (inactive) | > 100 µM (inactive) | > 100 µM (inactive) | > 100 µM (inactive) | > 100 µM (inactive) | > 100 µM (inactive) | > 100 µM (inactive) | > 100 µM (inactive) | > 100 µM (inactive) | > 100 µM (inactive) | > 100 µM (inactive) | > 100 µM (inactive) | > 100 µM (inactive) | > 100 µM (inactive) | > 100 µM (inactive) | > 100 µM (inactive) |
| COc1ccc(Cc2ccc3nc(O)cc(C)c3c2)cc1S(=O)(=O)O | > 100 µM (inactive) | > 100 µM (inactive) | > 100 µM (inactive) | > 100 µM (inactive) | > 100 µM (inactive) | > 100 µM (inactive) | > 100 µM (inactive) | > 100 µM (inactive) | > 100 µM (inactive) | > 100 µM (inactive) | > 100 µM (inactive) | > 100 µM (inactive) | > 100 µM (inactive) | > 100 µM (inactive) | > 100 µM (inactive) | > 100 µM (inactive) |
| O=C(CC(=O)Nc1ccccc1Cl)NNC(Sc1ccccc1)c1cc(/N=N/c2ccc(Br)cc2)ccc1O (stereo unspecified) | 1.14 µM (inactive) | 4.07 µM (inactive) | 3.01 µM (inactive) | 2.22 µM (inactive) | 3.3 µM (inactive) | 1.07 µM (active) | 2.56 µM (inactive) | 2.07 µM (inactive) | 1.35 µM (inactive) | 1.36 µM (inactive) | 1.28 µM (inactive) | 2.02 µM (inactive) | 1.45 µM (inactive) | 1.23 µM (inactive) | 0.74 µM (active) | 0.321 µM (active) |
| N=C(N)NS(=O)(=O)c1ccc(NC(=O)c2ccc3nc4ccccc4c(Nc4ccc(S(=O)(=O)N=C(N)N)cc4)c3c2)cc1 | > 100 µM (inactive) | > 100 µM (inactive) | > 100 µM (inactive) | > 100 µM (inactive) | > 100 µM (inactive) | > 100 µM (inactive) | > 100 µM (inactive) | > 100 µM (inactive) | > 100 µM (inactive) | > 100 µM (inactive) | > 100 µM (inactive) | > 100 µM (inactive) | > 100 µM (inactive) | > 100 µM (inactive) | > 100 µM (inactive) | > 100 µM (inactive) |
| N=C(N)NCCC[C@H]1NC(=O)[C@@H](CCC(=O)O)NC(=O)[C@@H](CC(=O)O)NC(=O)[C@@H](CCC(=O)O)NC(=O)[C@H](Cc2c[nH]c3ccccc23)NC1=O (cyclo(W[dE][dD][dE][dR])) | > 7.5 µM (inactive) | > 7.5 µM (inactive) | > 7.5 µM (inactive) | > 7.5 µM (inactive) | 0.191 µM (active) | > 7.5 µM (inactive) | > 7.5 µM (inactive) | > 7.5 µM (inactive) | > 7.5 µM (inactive) | > 7.5 µM (inactive) | > 7.5 µM (inactive) | > 7.5 µM (inactive) | > 7.5 µM (inactive) | > 7.5 µM (inactive) | > 7.5 µM (inactive) | > 7.5 µM (inactive) |
| CCOC(=O)C1CC(C(=O)c2ccccc2)N2c3ccccc3-c3ccccc3C12 (stereo unspecified) | 32.7 µM (inactive) | 50.9 µM (inactive) | > 100 µM (inactive) | 41.7 µM (inactive) | > 100 µM (inactive) | 45.1 µM (inactive) | 97.1 µM (inactive) | 52.8 µM (inactive) | 48.6 µM (inactive) | > 100 µM (inactive) | 43.2 µM (inactive) | 23.6 µM (inactive) | > 100 µM (inactive) | 11.9 µM (inactive) | 74.6 µM (inactive) | 52 µM (inactive) |
| O=C(O)CN1CCNCCN(CC(=O)O)CCN(CC(=O)O)CCNCC1 | > 100 µM (inactive) | 18.2 µM (inactive) | 97.7 µM (inactive) | > 100 µM (inactive) | > 100 µM (inactive) | > 100 µM (inactive) | > 100 µM (inactive) | > 100 µM (inactive) | > 100 µM (inactive) | > 100 µM (inactive) | 23.3 µM (inactive) | > 100 µM (inactive) | 63.7 µM (inactive) | > 100 µM (inactive) |  | 83.6 µM (inactive) |
| CN(C)/C=N\c1c(Br)cc(Br)c2nonc12 | > 100 µM (inactive) | > 100 µM (inactive) | > 100 µM (inactive) | > 100 µM (inactive) | > 100 µM (inactive) | > 100 µM (inactive) | > 100 µM (inactive) | 85.7 µM (inactive) | > 100 µM (inactive) | > 100 µM (inactive) | > 100 µM (inactive) | > 100 µM (inactive) | > 100 µM (inactive) | > 100 µM (inactive) | > 100 µM (inactive) | > 100 µM (inactive) |
| CC1=CC(O)C(C(O)(C(F)(F)F)C(F)(F)F)C(C)(C)C1 (stereo unspecified) |  | > 10 µM (inactive) | > 10 µM (inactive) | > 10 µM (inactive) | > 10 µM (inactive) | 0.0371 µM (active) | > 10 µM (inactive) | > 10 µM (inactive) | > 10 µM (inactive) | > 10 µM (inactive) | > 10 µM (inactive) | > 10 µM (inactive) | > 10 µM (inactive) | > 10 µM (inactive) | > 10 µM (inactive) | > 10 µM (inactive) |
| CC(C)(C)c1cc(C(C)(C)C)c2c(c1O)OC(=O)CS2 | 5.73 µM (inactive) | 4.06 µM (inactive) | 5.85 µM (inactive) | 16.2 µM (inactive) | 6.93 µM (inactive) | 2.88 µM (inactive) | 7.13 µM (inactive) | 9.59 µM (inactive) | 4.44 µM (inactive) | 3.96 µM (inactive) | 4.55 µM (inactive) | 4.56 µM (inactive) | 3.72 µM (inactive) | 21.1 µM (inactive) | 5.51 µM (inactive) | 4.61 µM (inactive) |
| S=P(C1CCCCC1)(C1CCCCC1)C(c1cccnc1)N1CCCC1 (stereo unspecified) |  | 20.6 µM (inactive) | 36.1 µM (inactive) | 18.6 µM (inactive) | 20.9 µM (inactive) | 16.5 µM (inactive) | 16.3 µM (inactive) | 23.5 µM (inactive) | 17.5 µM (inactive) | 20.3 µM (inactive) | 19 µM (inactive) | 31.9 µM (inactive) | 16.7 µM (inactive) | 15.5 µM (inactive) | 18.5 µM (inactive) | 24 µM (inactive) |
| CC(O)c1c2c(cc3c1CC1(C3)Cc3cc4c(c(C(C)O)c3C1)CCC4)CCC2 (stereo unspecified) | 1.69 µM (inactive) | 13.1 µM (inactive) | 22.5 µM (inactive) | 16.8 µM (inactive) | 26.9 µM (inactive) | 13 µM (inactive) | 20.7 µM (inactive) | 15.3 µM (inactive) | 21.8 µM (inactive) | 11.2 µM (inactive) | 19.1 µM (inactive) | 11.9 µM (inactive) | 22.4 µM (inactive) | 12.6 µM (inactive) |  | 4.13 µM (inactive) |
